{"source": "patent US5508311A", "about": "“Aliphatic propargylamines as selective MAO-B inhibitors and as neuroprotective agents” (University of Saskatchewan, priority 1993, dated 1996)", "key": {"[1]": {"target": "T1, MAO-B (Rattus norvegicus, UniProt P19643)", "T1 sequence (P19643 1-520)": "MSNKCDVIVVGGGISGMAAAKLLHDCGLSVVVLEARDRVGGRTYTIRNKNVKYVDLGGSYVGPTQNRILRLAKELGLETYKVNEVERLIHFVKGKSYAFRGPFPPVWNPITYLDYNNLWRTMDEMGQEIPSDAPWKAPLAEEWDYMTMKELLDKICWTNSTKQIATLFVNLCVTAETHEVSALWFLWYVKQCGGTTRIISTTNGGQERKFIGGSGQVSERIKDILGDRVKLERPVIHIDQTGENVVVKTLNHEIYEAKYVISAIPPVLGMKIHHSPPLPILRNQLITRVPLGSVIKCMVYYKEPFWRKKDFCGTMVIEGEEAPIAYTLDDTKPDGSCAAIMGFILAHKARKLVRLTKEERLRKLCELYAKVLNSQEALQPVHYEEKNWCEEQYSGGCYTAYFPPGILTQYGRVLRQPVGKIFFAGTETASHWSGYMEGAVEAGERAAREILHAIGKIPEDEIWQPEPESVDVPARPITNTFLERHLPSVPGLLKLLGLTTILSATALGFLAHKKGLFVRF", "test": "biochemical", "assay_type": "biochemical"}, "[2]": {"target": "monoamine oxidase", "test": "Inhibition of rat liver monoamine oxidase deamination of dopamine (DA, mixed-type MAO A and B substrate) in vitro", "assay_type": "biochemical", "conditions": "substrate DA (5 × 10^-4 M), average of at least 3 independent experiments", "experimental": "The aliphatic propargylamine inhibitors (from 1×10^-10 M to 1×10^-4 M) were preincubated with the MAO for 20 min. at ambient room temperature and then the residual enzyme activities were determined by addition of the substrates, followed by further incubation at 37° C. for 30 min. The enzymatic reactions were terminated by the addition of citric acid and the aldehyde products were extracted with toluene: ethyl acetate (1:1, v/v) and the radio-activities assessed in a scintillation counter."}, "[3]": {"target": "T2, MAO-A (Mus musculus, UniProt Q64133)", "T2 construct": "MAO activities in the mouse brain after; from tissue", "T2 sequence (Q64133 1-526)": "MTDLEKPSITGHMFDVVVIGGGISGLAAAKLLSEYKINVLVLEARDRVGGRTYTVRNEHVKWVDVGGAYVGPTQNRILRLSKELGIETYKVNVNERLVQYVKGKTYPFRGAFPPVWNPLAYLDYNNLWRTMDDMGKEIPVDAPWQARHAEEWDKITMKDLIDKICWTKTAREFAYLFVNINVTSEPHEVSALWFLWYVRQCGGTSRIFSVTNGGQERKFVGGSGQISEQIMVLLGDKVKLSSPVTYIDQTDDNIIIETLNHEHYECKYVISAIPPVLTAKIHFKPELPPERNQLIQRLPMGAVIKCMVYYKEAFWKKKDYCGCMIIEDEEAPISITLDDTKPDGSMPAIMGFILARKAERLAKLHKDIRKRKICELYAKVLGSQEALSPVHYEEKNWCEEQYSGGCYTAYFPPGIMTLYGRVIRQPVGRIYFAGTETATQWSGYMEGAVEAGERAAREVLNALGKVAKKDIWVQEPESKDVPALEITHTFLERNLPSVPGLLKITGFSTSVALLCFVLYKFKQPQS", "assay_type": "in vivo", "conditions": "mouse, in vivo, po, 10 mg/kg", "experimental": "Table 3 indicates the MAO activities in the mouse brain following oral administration of the aliphatic propargylamines.\nof each compound. Striata were dissected from the brain two hours after\nthe administration of the drugs. MAOA and MAOB activities were determined"}, "[4]": {"test_system": "noradrenaline neurons", "test": "Protection of noradrenaline neurons against DSP-4 induced neurotoxicity in the mouse brain", "assay_type": "in vivo", "conditions": "Experiment I, pretreatment 10 mg/Kg i.p., mean ± S.E.", "experimental": "The analyses of DSP-4-induced neurotoxic effects were conducted in accordance with […] and Jonsson (Eur. J. Pharmacol. 103 (1984), 269-278), hereby incorporated by reference. Mice were pretreated with M-2-PP (10 mg/Kg) and 2-HxMP (10 mg/Kg) or saline as control via i.p. administration and one hour later challenged with a single i.p. dose of DSP-4 (DSP-4: […] One week after treatment noradrenaline content in the putamen of these mice was analyzed. The results which are shown in Table 5 are mean ± S.E. of five animals in each group."}}, "data": [{"smiles": "C#CCN(C)C(C)CCC.Cl.O=C(O)C(=O)O", "note": "(stereo not drawn) [Example M-2-PP, N-(2-Pentyl)-N-methylpropargylamine hydrochloride and oxalate]", "values": [{"measurement": "Ratio MAO-A/MAO-B", "setting": "[1]; rat, liver mitochondrial membranes", "result": 50}, {"measurement": "IC50", "setting": "[1]; read-out: PE IC50", "result": 0.2, "unit": "µM"}, {"measurement": "IC50", "setting": "[2]", "result": 6, "unit": "µM"}, {"measurement": "Relative activity 5-HT", "setting": "[3]", "result": "89 ± 15"}, {"measurement": "Noradrenaline in putamen", "setting": "[4]; DSP-4 50 mg/Kg, p < 0.01 vs DSP-4 (DSP-4 alone 33)", "result": "90 ± 0.07", "unit": "%"}, {"measurement": "Noradrenaline in putamen", "setting": "[4]; saline, no DSP-4", "result": "111 ± 0.09", "unit": "%"}]}]}
